Test system: subject having an autoimmune disease
Type: in vivo, human
Conditions: IV cyclophosphamide regimen of TABLE 1, no fludarabine, before CAR T infusion
Text: T cells are obtained from a subject having an autoimmune disease (for example, an autoimmune disease selected from (SLE), lupus nephritis, SLE with anti-dsDNA antibodies, pemphigus vulgaris (PV), mucosal PV, mucocutaneous PV, myasthenia gravis (MG), MuSK-associated MG, AChR MG, myositis, membranous nephropathy, anti-synthetase syndrome, dermatomyositis, immune mediated necrotizing myopathy, multiple sclerosis, neuromyelitis optica, chronic inflammatory demyelinating polyneuropathy, anti-NMDA Receptor encephalitis, Lambert-Eaton syndrome, pemphigus foliaceus, epidermolysis bullosa acquisita, bullous pemphigoid, Goodpasture's syndrome, rheumatoid arthritis, systemic sclerosis, anti-neutrophil cytoplasmic antibody (ANCA)-associated vasculitis, immune thrombocytopenic purpura, antiphospholipid syndrome, autoimmune hemolytic anemia, type 1 diabetes, Grave's disease, Hashimoto's disease, and Sjogren's syndrome). […]
A dose of CAR T cells (e.g., from 1×10^6 to 1×10^7 cells/kg bodyweight) is intravenously administered to the subject. The subject is monitored post-infusion for B-cell levels, white blood cell count, CAR T cell levels, and for autoimmune disease markers (e.g., autoantibody levels).

Q: How did the “effectiveness of the cyclophosphamide preconditioning regimen used prior to CD19-CAR T cell therapy in treating the autoimmune disease” value turn out when `O=P1(N(CCCl)CCCl)NCCCO1` (stereo not shown) [cyclophosphamide] was run?
A: effective in the treatment of the autoimmune disease
